Experimental findings from patent US20040214721A1 (priority 2001, published 2004) are described below.

For orientation: melting point means the temperature of the solid-liquid transition.

The structures appear in SMILES notation.

Turning to `CCC#CCOc1ccc([C@@H]2CCCC[C@H]2NC(=O)[C@@H](NS(C)(=O)=O)C(C)C)cc1OC`, the melting point was 166 to 168 °C.

The molecule `C#CCOc1ccc([C@@H]2CCCC[C@H]2NC(=O)[C@@H](NS(C)(=O)=O)C(C)C)cc1OC` returned a melting point of 183 to 185 °C.

On to `CCC#CCOc1ccc([C@@H]2CCCC[C@H]2NC(=O)[C@@H](NS(=O)(=O)N(C)C)C(C)C)cc1OC`, for which the melting point was in the range of 158 to 160 °C.

With `COc1ccc(-c2ccccc2NC(=O)CNS(C)(=O)=O)cc1OC`, the melting point lay in the range of 158 to 160 °C.

As to `CCOc1ccc(-c2ccccc2NC(=O)[C@@H](NS(C)(=O)=O)C(C)C)cc1OC`, the melting point lay in the range of 95 to 98 °C.

On to `COc1ccc(-c2ccccc2NC(=O)[C@@H](NS(C)(=O)=O)C(C)C)cc1OC`, for which the melting point lay within 68 to 70 °C.

In the case of `C#CCOc1ccc([C@@H]2CCCC[C@H]2NC(=O)[C@@H](NS(=O)(=O)CC)C(C)C)cc1OC`, the melting point lay within 149 to 151 °C.

As for `CCC#CCOc1ccc([C@@H]2CCCC[C@H]2NC(=O)[C@@H](NS(=O)(=O)CC)C(C)C)cc1OC`, the melting point was in the range of 133 to 136 °C.
